Ki data for 25 molecules are collected here from patent US12492181B2, “Gem-disubstituted piperidine melanocortin subtype-2 receptor (MC2R) antagonists and uses thereof” (Crinetics Pharmaceuticals, Inc., priority 2019, dated 2025).

T1 sequence (Q01718 whole entry): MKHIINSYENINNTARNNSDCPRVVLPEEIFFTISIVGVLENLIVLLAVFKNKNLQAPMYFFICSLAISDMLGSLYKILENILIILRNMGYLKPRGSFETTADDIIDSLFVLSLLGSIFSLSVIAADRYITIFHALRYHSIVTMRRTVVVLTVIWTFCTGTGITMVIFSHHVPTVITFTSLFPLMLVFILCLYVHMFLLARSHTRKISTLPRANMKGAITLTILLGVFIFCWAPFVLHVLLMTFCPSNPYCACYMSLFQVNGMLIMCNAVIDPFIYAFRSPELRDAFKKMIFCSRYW
T1 sequence (Q8TCY5 whole entry partner): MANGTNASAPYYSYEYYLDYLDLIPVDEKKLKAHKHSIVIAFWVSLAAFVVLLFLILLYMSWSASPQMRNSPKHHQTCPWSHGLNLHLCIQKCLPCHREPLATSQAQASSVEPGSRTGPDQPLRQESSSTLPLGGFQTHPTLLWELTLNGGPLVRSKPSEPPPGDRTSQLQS

This assay has as its target T1, hMC2 receptor (crude hMC2R membranes from CRE-bla-CHO-K1 cells stably expressing hMC2 receptor and hMRAP accessory protein) (Homo sapiens, UniProt Q01718).
T1 construct: crude membrane fractions
Kind of assay: hMC2 membrane binding assay ([125I]ACTH (1-39) Tyr23, SPA). To be noted: displacement of 0.2 nM [125I]ACTH (1-39) Tyr23 from hMC2R membranes, 1.5 hours at room temperature; read-out: MC2R binding potency. The essentials: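 Ki values come from non-linear regression of SPA scintillation counts, with compounds displacing [125I]ACTH(1-39) Tyr23. Membranes come from CRE-bla-CHO-K1 cells stably expressing hMC2 receptor together with hMRAP. They are preincubated with WGA-coated PVT SPA beads in 50 mM HEPES pH 7.4 with 0.20% BSA, Mg2+, Ca2+ and protease inhibitors.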
Regarding `CCOc1ncccc1-c1ccc(C2(C(=O)NCCNC)CCN(c3ccc(C(F)(F)F)cc3F)CC2)cn1` [Compound 1-223, 4-{2′-ethoxy-[2,3′-bipyridin]-5-yl}-1-[2-fluoro-4-(trifluoromethyl)phenyl]-N-[2-(methylamino)ethyl]piperidine-4-carboxamide], the Ki was less than 10 nM.

On to `CNCCCNC(=O)C1(c2ccc(-c3cccn3C)nc2)CCN(c2ccc(C(F)(F)F)cc2C#N)CC1` [Compound 1-206, 1-[2-cyano-4-(trifluoromethyl)phenyl]-4-[6-(1-methyl-1H-pyrrol-2-yl)pyridin-3-yl]-N-[3-(methylamino)propyl]piperidine-4-carboxamide], for which the Ki was in the range of 10 to 100 nM.

For the molecule `CN1CC[C@H]1CNC(=O)C1(c2ccc(-c3cccn3C)nc2)CCN(c2ccc(C(F)(F)F)cc2C#N)CC1` [Compound 1-241, 1-[2-cyano-4-(trifluoromethyl)phenyl]-4-[6-(1-methyl-1H-pyrrol-2-yl)pyridin-3-yl]-N-{[(2S)-1-methylazetidin-2-yl]methyl}piperidine-4-carboxamide], the Ki was less than 10 nM.

As to `CN(C)[C@@H]1COC[C@H]1NC(=O)C1(c2ccc(-c3cccn3C)nc2)CCN(c2ccc(C(F)(F)F)cc2C#N)CC1` [Compound 1-264, 1-[2-cyano-4-(trifluoromethyl)phenyl]-N-[(3S,4S)-4-(dimethylamino)oxolan-3-yl]-4-[6-(1-methyl-1H-pyrrol-2-yl)pyridin-3-yl]piperidine-4-carboxamide], the Ki fell in the range of 10 to 100 nM.

As to `CCOc1ncccc1-c1ccc(C2(C(=O)N[C@H]3CCN(C)C3)CCN(c3ccc(C(F)(F)F)nc3C(N)=O)CC2)cn1` [Compound 1-27, 3-(4-{2′-ethoxy-[2,3′-bipyridin]-5-yl}-4-{[(3S)-1-methylpyrrolidin-3-yl]carbamoyl}piperidin-1-yl)-6-(trifluoromethyl)pyridine-2-carboxamide], the Ki lay in the range of 10 to 100 nM.

In the case of `COc1ccccc1-c1ncc(C2(NC(=O)CN(C)C)CCN(c3ccc(C(F)(F)F)cc3C#N)CC2)cc1F` [Compound 2-61, N-{1-[2-cyano-4-(trifluoromethyl)phenyl]-4-[5-fluoro-6-(2-methoxyphenyl)pyridin-3-yl]piperidin-4-yl}-2-(dimethylamino)acetamide], the Ki is less than 10 nM.

As for `CN1CC[C@@H](NC(=O)C2(c3ccc(-c4ccn(C)c4)nc3)CCN(c3ccc(C(F)(F)F)cc3C#N)CC2)C1` [Compound 1-115, 1-[2-cyano-4-(trifluoromethyl)phenyl]-4-[6-(1-methyl-1H-pyrrol-3-yl)pyridin-3-yl]-N-[(3R)-1-methylpyrrolidin-3-yl]piperidine-4-carboxamide], the Ki is 10 to 100 nM.

With `CN(C)CCNC(=O)C1(c2cnc(-c3cccn3C)c(F)c2)CCN(c2ccc(C(F)(F)F)cc2F)CC1` [Compound 1-304, N-[2-(dimethylamino)ethyl]-1-[2-fluoro-4-(trifluoromethyl)phenyl]-4-[5-fluoro-6-(1-methyl-1H-pyrrol-2-yl)pyridin-3-yl]piperidine-4-carboxamide], the Ki was less than 10 nM.

As to `Cn1cccc1-c1ccc(C2(C(=O)N[C@@H]3C[C@H]3N)CCN(c3ccc(C(F)(F)F)cc3C#N)CC2)cn1` (racemic) [Compound 1-259, rac-N-[(1R,2R)-2-aminocyclopropyl]-1-[2-cyano-4-(trifluoromethyl)phenyl]-4-[6-(1-methyl-1H-pyrrol-2-yl)pyridin-3-yl]piperidine-4-carboxamide], the Ki fell in the range of 10 to 100 nM.

Regarding `CN1CC[C@@H](NC(=O)C2(c3ccc(-c4cccc(F)c4O)nc3)CCN(c3ccc(C(F)(F)F)cc3C#N)CC2)C1` [Compound 1-129, 1-[2-cyano-4-(trifluoromethyl)phenyl]-4-[6-(3-fluoro-2-hydroxyphenyl)pyridin-3-yl]-N-[(3R)-1-methylpyrrolidin-3-yl]piperidine-4-carboxamide], the Ki was in the range of 10 to 100 nM.

For the molecule `CN1CC[C@@H](NC(=O)C2(c3ccc(-c4ccc(C#N)n4C)nc3)CCN(c3ccc(C(F)(F)F)cc3C#N)CC2)C1` [Compound 1-153, 4-[6-(5-cyano-1-methyl-1H-pyrrol-2-yl)pyridin-3-yl]-1-[2-cyano-4-(trifluoromethyl)phenyl]-N-[(3R)-1-methylpyrrolidin-3-yl]piperidine-4-carboxamide], the Ki was 10 to 100 nM.

Turning to `CN1CC[C@H](NC(=O)C2(c3ccc(-c4ccccc4C4CC4)nc3)CCN(c3ccc(C(F)(F)F)cc3C#N)CC2)C1` [Compound 1-121, 1-[2-cyano-4-(trifluoromethyl)phenyl]-4-[6-(2-cyclopropylphenyl)pyridin-3-yl]-N-[(3S)-1-methylpyrrolidin-3-yl]piperidine-4-carboxamide], the Ki is less than 10 nM.

Take `COc1ncc(F)cc1-c1ncc(C2(C(=O)N[C@H]3CCN(C)C3)CCN(c3ccc(C(F)(F)F)cc3C#N)CC2)cc1F` [Compound 1-209, 1-[2-cyano-4-(trifluoromethyl)phenyl]-4-{3,5′-difluoro-2′-methoxy-[2,3′-bipyridin]-5-yl}-N-[(3S)-1-methylpyrrolidin-3-yl]piperidine-4-carboxamide]: the Ki was less than 10 nM.

For the molecule `CNCCNC(=O)C1(c2ccc(-c3cccn3C)nc2)CCN(c2ccc(C(F)(F)F)cc2F)CC1` [Compound 1-281, 1-[2-fluoro-4-(trifluoromethyl)phenyl]-4-[6-(1-methyl-1H-pyrrol-2-yl)pyridin-3-yl]-N-[2-(methylamino)ethyl]piperidine-4-carboxamide], the Ki was less than 10 nM.

As to `CCc1ccccc1-c1ccc(C2(C(=O)N[C@H]3CCN(C)C3)CCN(c3ccc(C(F)(F)F)cc3Cl)CC2)cn1` [Compound 1-156, 1-[2-chloro-4-(trifluoromethyl)phenyl]-4-[6-(2-ethylphenyl)pyridin-3-yl]-N-[(3S)-1-methylpyrrolidin-3-yl]piperidine-4-carboxamide], the Ki was less than 10 nM.

For `CN1CC[C@@H](NC(=O)C2(c3ccc(-c4ccnn4C)nc3)CCN(c3ccc(C(F)(F)F)cc3C#N)CC2)C1` [Compound 1-43, 1-[2-cyano-4-(trifluoromethyl)phenyl]-4-[6-(1-methyl-1H-pyrazol-5-yl)pyridin-3-yl]-N-[(3R)-1-methylpyrrolidin-3-yl]piperidine-4-carboxamide], the Ki was less than 10 nM.

As to `CCOc1ncccc1-c1ncc(C2(C(=O)N[C@@H](C)CNC)CCN(c3ccc(Cl)cc3C#N)CC2)cc1F` [Compound 1-323, 1-(4-chloro-2-cyanophenyl)-4-{2′-ethoxy-3-fluoro-[2,3′-bipyridin]-5-yl}-N-[(2S)-1-(methylamino)propan-2-yl]piperidine-4-carboxamide], the Ki is less than 10 nM.

On to `CN1CC(F)(F)C[C@H]1CNC(=O)C1(c2ccc(-c3cccn3C)nc2)CCN(c2ccc(C(F)(F)F)cc2C#N)CC1` [Compound 1-279, 1-[2-cyano-4-(trifluoromethyl)phenyl]-N-{[(2S)-4,4-difluoro-1-methylpyrrolidin-2-yl]methyl}-4-[6-(1-methyl-1H-pyrrol-2-yl)pyridin-3-yl]piperidine-4-carboxamide], for which the Ki fell in the range of 100 to 1000 nM.

With `Cn1cccc1-c1ccc(C2(C(=O)NC34CCN(CC3)C4)CCN(c3ccc(C(F)(F)F)cc3C#N)CC2)cn1` [Compound 1-221, N-{1-azabicyclo[2.2.1]heptan-4-yl}-1-[2-cyano-4-(trifluoromethyl)phenyl]-4-[6-(1-methyl-1H-pyrrol-2-yl)pyridin-3-yl]piperidine-4-carboxamide], the Ki was in the range of 10 to 100 nM.

As for `CCOc1ccccc1-c1ccc(C2(NC(=O)CN(C)C)CCN(c3ccc(Cl)cc3C#N)CC2)cn1` [Compound 2-31, N-[1-(4-chloro-2-cyanophenyl)-4-[6-(2-ethoxyphenyl)pyridin-3-yl]piperidin-4-yl]-2-(dimethylamino)acetamide], the Ki is less than 10 nM.

`Cn1cccc1-c1ccc(C2(C(=O)NCCN3CCC3)CCN(c3ccc(C(F)(F)F)cc3C#N)CC2)cn1` [Compound 1-248, N-[2-(azetidin-1-yl)ethyl]-1-[2-cyano-4-(trifluoromethyl)phenyl]-4-[6-(1-methyl-1H-pyrrol-2-yl)pyridin-3-yl]piperidine-4-carboxamide]: the Ki was less than 10 nM.

As for `Cn1cccc1-c1ccc(C2(C(=O)N[C@H]3C[C@@H](N)C3)CCN(c3ccc(C(F)(F)F)cc3C#N)CC2)cn1` [Compound 1-233, 1-[2-cyano-4-(trifluoromethyl)phenyl]-4-[6-(1-methyl-1H-pyrrol-2-yl)pyridin-3-yl]-N-[(1S,3S)-3-aminocyclobutyl]piperidine-4-carboxamide], the Ki fell in the range of 10 to 100 nM.

`CCOc1ncccc1-c1ccc(C2(C(=O)N[C@H]3CCN(C)C3)CCN(c3ccc(C(F)(F)F)cc3Cl)CC2)nn1` [Compound 1-194, 1-[2-chloro-4-(trifluoromethyl)phenyl]-4-[6-(2-ethoxypyridin-3-yl)pyridazin-3-yl]-N-[(3S)-1-methylpyrrolidin-3-yl]piperidine-4-carboxamide]: the Ki was less than 10 nM.

Consider `Cn1cccc1-c1ccc(C2(C(=O)N[C@H]3CCNC3)CCN(c3ccc(C(F)(F)F)cc3C#N)CC2)cn1` [Compound 1-152, 1-[2-cyano-4-(trifluoromethyl)phenyl]-4-[6-(1-methyl-1H-pyrrol-2-yl)pyridin-3-yl]-N-[(3S)-pyrrolidin-3-yl]piperidine-4-carboxamide], for which the Ki was less than 10 nM.

Consider `CN1[C@@H]2CC[C@H]1[C@@H](NC(=O)C1(c3ccc(-c4cccn4C)nc3)CCN(c3ccc(C(F)(F)F)cc3C#N)CC1)C2` (racemic) [Compound 1-251, rac-1-[2-cyano-4-(trifluoromethyl)phenyl]-4-[6-(1-methyl-1H-pyrrol-2-yl)pyridin-3-yl]-N-[(1S,2S,4R)-7-methyl-7-azabicyclo[2.2.1]heptan-2-yl]piperidine-4-carboxamide], for which the Ki was 10 to 100 nM.
